{
  "source": "patent US20240216401A1",
  "about": "“COMBINATION THERAPY BY USING AKR1C3-ACTIVATED COMPOUND WITH IMMUNE CHECKPOINT INHIBITOR” (OBI Pharma, Inc., priority 2021, published 2024)",
  "test_system": "T helper (TH) cells (CD45^+CD4^+ T cells) in tumor-infiltrating lymphocytes",
  "experiment": "Example 2: flow cytometry, percentage of TH cells in TILs",
  "type": "in vivo, Mus musculus",
  "method": "Mice were sacrificed by CO2 euthanasia at the end of the study duration, and the connective tissue around tumor was resected. The tumor samples were then weighed and cut equally into three sections if the tumor weight over 400 mg. The tumor tissue was prepared for the isolation of tumor-infiltrating lymphocytes (TILs). The rest of one section was fixed in 10% formaldehyde and embedded in paraffin; the other was stored at a temperature below −70° C.\nThe tumor samples were dissected into smaller fragments using scalpels and then digested with a cocktail of collagenase, DNase I, and Hyaluronidase (Collagenase #C5138, DNase I #D5025, Hyaluronidase #H6254, SigmaAldrich) for at least 2 hours.\nCells were stained with the fluorescently conjugated surface antibodies and incubated for 30 minutes at 4° C., and then resuspended in staining buffer for flow cytometric analysis. Flow cytometry was done using a Navios EX Flow Cytometer (Beckman Coulter). Data were analyzed using the Kaluza Analysis Software (Beckman Coulter).",
  "key": {"[1]": {"settings": "G2: OBI-3424 (0.3 mg/kg), group Mean"}, "[2]": {"settings": "G2: OBI-3424 (0.3 mg/kg), individual animals, 0.3 mg/kg"}, "[3]": {"settings": "G3: OBI-3424 (1 mg/kg), group Mean"}, "[4]": {"settings": "G3: OBI-3424 (1 mg/kg), individual animals, 1 mg/kg"}},
  "note": "“And” between values parts separate entries of the source, which are not always exact repeats. Identical values can stand only once.",
  "data": [
    {"smiles": "C[C@H](OP(=O)(N1CC1)N1CC1)c1ccc([N+](=O)[O-])c(Oc2cccc(C(=O)N(C)C)c2)c1", "note": "[OBI-3424, (S)-1-(3-(3-N,N-dimethylaminocarbonyl)phenoxyl-4-mtrophenyl)-1-ethyl-N,N′-bis(ethylene)phosphoramidate]", "values": [
      {"measurement": "TH cells (CD45^+CD4^+ T cells) in TILs", "setting": "Example 2, mean±SEM, OBI-3424 1 mg/kg, alone (G3) or with anti-hPD-1 (G6)", "value": "25.05±2.08", "unit": "%"},
      {"measurement": "CD25^+ TH cells (CD45^+CD4^+ CD25^+) Total %", "setting": "[1]", "value": 2.46, "unit": "%"},
      {"measurement": "CD25^+ TH cells (CD45^+CD4^+CD25^+) Cell count (×10^5)", "setting": "[1]", "value": "4.93 ×10^5"},
      {"measurement": "CD25^+ TH cells (CD45^+CD4^+CD25^+) TH Gated %", "setting": "[1]", "value": 18.22, "unit": "%"},
      {"measurement": "CD69^+ TH cells (CD45^+CD4^+CD69^+) Cell count (×10^5)", "setting": "[1]", "value": "13.89 ×10^5"},
      {"measurement": "CD69^+ TH cells (CD45^+CD4^+CD69^+) TH Gated %", "setting": "[1]", "value": 60.13, "unit": "%"},
      {"measurement": "CD69^+ TH cells (CD45^+CD4^+CD69^+) Total %", "setting": "[1]", "value": 8.46, "unit": "%"},
      {"measurement": "Foxp3^+ Treg cells (CD45^+CD4^+CD25^+Foxp3^+) Cell count (×10^5)", "setting": "[1]", "value": "0.24 ×10^5"},
      {"measurement": "Foxp3^+ Treg cells (CD45^+CD4^+CD25^+Foxp3^+) TH Gated %", "setting": "[1]", "value": 5.27, "unit": "%"},
      {"measurement": "Foxp3^+ Treg cells (CD45^+CD4^+CD25^+Foxp3^+) Total %", "setting": "[1]", "value": 0.12, "unit": "%"},
      {"measurement": "PD-1^+ TH cells (CD45^+CD4^+ PD-1^+) Cell count (×10^5)", "setting": "[1]", "value": "20.36 ×10^5"},
      {"measurement": "PD-1^+ TH cells (CD45^+CD4^+ PD-1^+) TH Gated %", "setting": "[1]", "value": 93.96, "unit": "%"},
      {"measurement": "PD-1^+ TH cells (CD45^+CD4^+ PD-1^+) Total %", "setting": "[1]", "value": 12.11, "unit": "%"},
      {"measurement": "TH cells (CD45^+CD4^+) CD45^+ Gated %", "setting": "[1]", "value": 33.51, "unit": "%"},
      {"measurement": "TH cells (CD45^+CD4^+) Cell count (×10^5)", "setting": "[1]", "value": "21.50 ×10^5"},
      {"measurement": "TH cells (CD45^+CD4^+) Total %", "setting": "[1]", "value": 12.88, "unit": "%"},
      {"measurement": "CD25^+ TH cells (CD45^+CD4^+ CD25^+) Total %", "setting": "[2]", "value": "1.65% and 2.12% and 4.23% and 2.84%"},
      {"measurement": "CD25^+ TH cells (CD45^+CD4^+CD25^+) Cell count (×10^5)", "setting": "[2]", "value": "4.34 ×10^5 and 3.39 ×10^5 and 8.91 ×10^5 and 0.45 ×10^5 and 10.43 ×10^5 and 2.06 ×10^5"},
      {"measurement": "CD25^+ TH cells (CD45^+CD4^+CD25^+) TH Gated %", "setting": "[2]", "value": "18.38% and 17.49% and 18.21% and 10.15% and 30.45% and 14.61%"},
      {"measurement": "CD69^+ TH cells (CD45^+CD4^+CD69^+) Cell count (×10^5)", "setting": "[2]", "value": "14.86 ×10^5 and 13.89 ×10^5 and 28.08 ×10^5 and 3.35 ×10^5 and 16.93 ×10^5 and 6.24 ×10^5"},
      {"measurement": "CD69^+ TH cells (CD45^+CD4^+CD69^+) TH Gated %", "setting": "[2]", "value": "63.07% and 71.55% and 57.32% and 49.45% and 44.32%"},
      {"measurement": "CD69^+ TH cells (CD45^+CD4^+CD69^+) Total %", "setting": "[2]", "value": "7.64% and 6.79% and 5.20% and 15.65% and 6.87% and 8.60%"},
      {"measurement": "Foxp3^+ Treg cells (CD45^+CD4^+CD25^+Foxp3^+) Cell count (×10^5)", "setting": "[2]", "value": "0.21 ×10^5 and 0.27 ×10^5 and 0.43 ×10^5 and 0.03 ×10^5 and 0.39 ×10^5 and 0.08 ×10^5"},
      {"measurement": "Foxp3^+ Treg cells (CD45^+CD4^+CD25^+Foxp3^+) TH Gated %", "setting": "[2]", "value": "5.03% and 7.95% and 5.08% and 6.05% and 3.69% and 3.81%"},
      {"measurement": "Foxp3^+ Treg cells (CD45^+CD4^+CD25^+Foxp3^+) Total %", "setting": "[2]", "value": "0.11% (2×) and 0.13% (2×) and 0.08% and 0.16%"},
      {"measurement": "PD-1^+ TH cells (CD45^+CD4^+ PD-1^+) Cell count (×10^5)", "setting": "[2]", "value": "21.12 ×10^5 and 16.11 ×10^5 and 38.56 ×10^5 and 4.30 ×10^5 and 32.19 ×10^5 and 9.90 ×10^5"},
      {"measurement": "PD-1^+ TH cells (CD45^+CD4^+ PD-1^+) TH Gated %", "setting": "[2]", "value": "98.48% and 81.16% and 94.89% and 90.86% and 99.60% and 98.76%"},
      {"measurement": "PD-1^+ TH cells (CD45^+CD4^+ PD-1^+) Total %", "setting": "[2]", "value": "10.86% and 7.88% and 7.14% and 20.09% and 13.06% and 13.65%"},
      {"measurement": "TH cells (CD45^+CD4^+) CD45^+ Gated %", "setting": "[2]", "value": "59.01% and 26.17% and 17.42% and 32.52% and 29.44% and 36.50%"},
      {"measurement": "TH cells (CD45^+CD4^+) Cell count (×10^5)", "setting": "[2]", "value": "21.45 ×10^5 and 19.84 ×10^5 and 40.61 ×10^5 and 4.73 ×10^5 and 32.34 ×10^5 and 10.02 ×10^5"},
      {"measurement": "TH cells (CD45^+CD4^+) Total %", "setting": "[2]", "value": "11.03% and 9.70% and 7.52% and 22.11% and 13.12% and 13.82%"},
      {"measurement": "CD25^+ TH cells (CD45^+CD4^+ CD25^+) Total %", "setting": "[3]", "value": 3.32, "unit": "%"},
      {"measurement": "CD25^+ TH cells (CD45^+CD4^+CD25^+) Cell count (×10^5)", "setting": "[3]", "value": "2.83 ×10^5"},
      {"measurement": "CD25^+ TH cells (CD45^+CD4^+CD25^+) TH Gated %", "setting": "[3]", "value": 13.39, "unit": "%"},
      {"measurement": "CD69^+ TH cells (CD45^+CD4^+CD69^+) Cell count (×10^5)", "setting": "[3]", "value": "12.24 ×10^5"},
      {"measurement": "CD69^+ TH cells (CD45^+CD4^+CD69^+) TH Gated %", "setting": "[3]", "value": 61.30, "unit": "%"},
      {"measurement": "CD69^+ TH cells (CD45^+CD4^+CD69^+) Total %", "setting": "[3]", "value": 15.55, "unit": "%"},
      {"measurement": "Foxp3^+ Treg cells (CD45^+CD4^+CD25^+Foxp3^+) Cell count (×10^5)", "setting": "[3]", "value": "0.07 ×10^5"},
      {"measurement": "Foxp3^+ Treg cells (CD45^+CD4^+CD25^+Foxp3^+) TH Gated %", "setting": "[3]", "value": 3.04, "unit": "%"},
      {"measurement": "Foxp3^+ Treg cells (CD45^+CD4^+CD25^+Foxp3^+) Total %", "setting": "[3]", "value": 0.09, "unit": "%"},
      {"measurement": "PD-1^+ TH cells (CD45^+CD4^+ PD-1^+) Cell count (×10^5)", "setting": "[3]", "value": "19.54 ×10^5"},
      {"measurement": "PD-1^+ TH cells (CD45^+CD4^+ PD-1^+) TH Gated %", "setting": "[3]", "value": 97.01, "unit": "%"},
      {"measurement": "PD-1^+ TH cells (CD45^+CD4^+ PD-1^+) Total %", "setting": "[3]", "value": 24.35, "unit": "%"},
      {"measurement": "TH cells (CD45^+CD4^+) CD45^+ Gated %", "setting": "[3]", "value": 41.85, "unit": "%"},
      {"measurement": "TH cells (CD45^+CD4^+) Cell count (×10^5)", "setting": "[3]", "value": "20.13 ×10^5"},
      {"measurement": "TH cells (CD45^+CD4^+) Total %", "setting": "[3]", "value": 25.05, "unit": "%"},
      {"measurement": "CD25^+ TH cells (CD45^+CD4^+ CD25^+) Total %", "setting": "[4]", "value": "1.46% and 2.88% and 2.69% and 5.06% and 4.55% and 3.26%"},
      {"measurement": "CD25^+ TH cells (CD45^+CD4^+CD25^+) Cell count (×10^5)", "setting": "[4]", "value": "0.42 ×10^5 and 3.63 ×10^5 and 1.90 ×10^5 and 5.00 ×10^5 and 3.39 ×10^5 and 2.64 ×10^5"},
      {"measurement": "CD25^+ TH cells (CD45^+CD4^+CD25^+) TH Gated %", "setting": "[4]", "value": "5.51% and 11.47% and 14.05% and 20.81% and 18.53% and 9.97%"},
      {"measurement": "CD69^+ TH cells (CD45^+CD4^+CD69^+) Cell count (×10^5)", "setting": "[4]", "value": "4.74 ×10^5 and 19.21 ×10^5 and 9.19 ×10^5 and 10.91 ×10^5 and 12.59 ×10^5 and 16.82 ×10^5"},
      {"measurement": "CD69^+ TH cells (CD45^+CD4^+CD69^+) TH Gated %", "setting": "[4]", "value": "61.50% and 60.62% and 67.91% and 45.46% and 68.87% and 63.43%"},
      {"measurement": "CD69^+ TH cells (CD45^+CD4^+CD69^+) Total %", "setting": "[4]", "value": "16.35% and 15.22% and 13.01% and 11.04% and 16.92% and 20.76%"}
    ]}
  ]
}
